Assays:
[1] = system: central benzodiazepine receptors; assay: Central benzodiazepine receptor binding (test of Speth et al.); conditions: 1000 nM of the compound
Summary of the method: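 Radioligand binding by the Speth et al. method. Specific binding is total minus nonspecific binding, the latter measured with excess unlabelled ligand. Compounds screened at 1.0E-09, 1.0E-07 and 1.0E-05 M in single determination; values given as percent inhibition at 1000 nM compound.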

[2] = biological target: T1, α1 subtype containing GABA-A receptors (Homo sapiens, UniProt P14867+P18507); assay: Two-electrode voltage clamp electrophysiology in Xenopus oocytes, potentiation of GABA EC20 response, α1; type: cell-based; conditions: 100 nM compound; for activation at 0.1 µM: read-out: Percentage of potentiation alpha1
T1 construct: expressed in transfected cells; host or cells: Xenopus laevis oocytes, cRNA injected
T1 sequence (P14867 28-456): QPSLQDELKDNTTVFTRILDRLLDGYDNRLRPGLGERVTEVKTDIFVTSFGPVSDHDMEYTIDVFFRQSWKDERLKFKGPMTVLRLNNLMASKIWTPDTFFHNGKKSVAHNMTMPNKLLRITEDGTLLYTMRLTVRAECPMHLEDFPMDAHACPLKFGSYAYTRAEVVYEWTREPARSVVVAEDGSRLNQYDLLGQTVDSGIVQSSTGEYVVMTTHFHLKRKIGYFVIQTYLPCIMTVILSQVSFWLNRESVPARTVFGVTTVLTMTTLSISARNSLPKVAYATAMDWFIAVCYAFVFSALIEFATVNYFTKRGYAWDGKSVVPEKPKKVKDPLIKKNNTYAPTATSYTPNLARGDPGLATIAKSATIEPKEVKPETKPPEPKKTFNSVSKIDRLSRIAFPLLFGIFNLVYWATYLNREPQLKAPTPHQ
T1 sequence (P28472 26-473 partner): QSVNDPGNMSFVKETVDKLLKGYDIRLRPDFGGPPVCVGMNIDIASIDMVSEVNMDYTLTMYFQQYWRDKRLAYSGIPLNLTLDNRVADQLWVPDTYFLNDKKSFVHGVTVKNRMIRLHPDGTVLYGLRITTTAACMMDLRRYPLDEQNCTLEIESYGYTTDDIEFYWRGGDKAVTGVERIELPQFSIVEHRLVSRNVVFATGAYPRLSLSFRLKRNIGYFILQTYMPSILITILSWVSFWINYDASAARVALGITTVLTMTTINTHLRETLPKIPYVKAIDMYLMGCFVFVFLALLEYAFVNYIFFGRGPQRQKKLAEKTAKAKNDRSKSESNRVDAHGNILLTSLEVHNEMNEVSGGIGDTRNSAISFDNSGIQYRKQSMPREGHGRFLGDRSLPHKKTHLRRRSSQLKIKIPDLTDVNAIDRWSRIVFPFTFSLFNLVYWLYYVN
T1 sequence (P18507 40-475): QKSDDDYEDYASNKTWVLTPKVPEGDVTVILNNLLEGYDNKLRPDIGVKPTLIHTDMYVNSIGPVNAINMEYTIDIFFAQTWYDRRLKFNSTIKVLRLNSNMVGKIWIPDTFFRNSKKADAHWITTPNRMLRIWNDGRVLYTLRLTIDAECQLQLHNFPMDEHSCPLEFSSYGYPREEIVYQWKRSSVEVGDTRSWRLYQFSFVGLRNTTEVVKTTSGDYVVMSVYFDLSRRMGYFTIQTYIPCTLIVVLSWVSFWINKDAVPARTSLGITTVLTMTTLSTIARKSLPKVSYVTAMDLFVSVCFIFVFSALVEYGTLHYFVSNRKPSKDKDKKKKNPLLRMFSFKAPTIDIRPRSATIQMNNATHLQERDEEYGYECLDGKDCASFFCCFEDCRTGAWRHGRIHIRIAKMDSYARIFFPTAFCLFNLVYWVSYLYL
Summary of the method: (§1)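 Human α1/α2/α3/α5 with β3 and γ2L subunits expressed in Xenopus oocytes from injected cRNA, clamped at −80 mV in ND96 (pH 7.5). After baseline responses to GABA at EC20 (60 μM), 1 μM chlordiazepoxide served as potentiation standard, then test compound at 100 nM; one compound per oocyte.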

[3] = biological target: T2, α2 subtype containing GABA-A receptors (Homo sapiens, UniProt P18507+P47869); assay: Two-electrode voltage clamp electrophysiology in Xenopus oocytes, potentiation of GABA EC20 response, α2; type: cell-based; conditions: 100 nM compound; for activation at 0.1 µM: read-out: Percentage of potentiation alpha2
T2 construct: expressed in transfected cells; host or cells: Xenopus laevis oocytes, cRNA injected
T2 sequence (P47869 29-451): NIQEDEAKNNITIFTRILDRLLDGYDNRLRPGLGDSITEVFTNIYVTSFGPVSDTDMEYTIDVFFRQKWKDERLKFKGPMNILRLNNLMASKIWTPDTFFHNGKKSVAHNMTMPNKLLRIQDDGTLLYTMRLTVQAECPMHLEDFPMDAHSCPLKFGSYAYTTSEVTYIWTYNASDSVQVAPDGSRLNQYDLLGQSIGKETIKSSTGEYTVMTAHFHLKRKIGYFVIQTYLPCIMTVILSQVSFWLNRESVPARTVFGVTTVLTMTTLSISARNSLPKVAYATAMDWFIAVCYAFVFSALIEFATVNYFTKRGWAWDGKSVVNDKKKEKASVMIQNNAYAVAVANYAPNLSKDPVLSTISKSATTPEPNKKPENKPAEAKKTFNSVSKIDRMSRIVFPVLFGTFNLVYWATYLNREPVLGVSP
T2 sequence (P28472 26-473 partner): as the sequence (P28472 26-473 partner) above
T2 sequence (P18507 40-475): as the sequence (P18507 40-475) above
Summary of the method: as §1

## Cc1ccc(-c2nc3ccc(C)cn3c2CNc2nccs2)cc1 [Compound 150, N-((6-methyl-2-p-tolylH-imidazo[1,2-a]pyridin-3-yl)methyl)thiazole-2-amine]
[1]
  % Inhibition at 1000 nM for CBZD: ++ (percentage of inhibition of central BZD site binding is greater than 80% in the presence of 1000 nM of the compound)
[2]
  Percentage of potentiation alpha1: 0 (percentage of potentiation is between about 10% to about −10%)
[3]
  Percentage of potentiation alpha2: + (percentage of potentiation is greater than or equal to 10% but less than 50% in the presence of 100 nM of the compound)

## Cc1ccc(-c2nc3ccc(C)cn3c2Cn2cncn2)cc1 [Compound 7, 3-((1H-1,2,4-triazol-1-yl)methyl)-6-methyl-2-p-tolylH-imidazo[1,2-a]pyridine]
[1]
  % Inhibition at 1000 nM for CBZD: ++ (percentage of inhibition of central BZD site binding is greater than 80% in the presence of 1000 nM of the compound)
[2]
  Percentage of potentiation alpha1: + (percentage of potentiation is greater than or equal to 10% but less than 50% in the presence of 100 nM of the compound)
[3]
  Percentage of potentiation alpha2: + (percentage of potentiation is greater than or equal to 10% but less than 50% in the presence of 100 nM of the compound)

## O=c1c2ccccc2[nH]n1Cc1c(-c2ccc(Cl)cc2)nc2ccccn12 [Compound 118, 2-((2-(4-chlorophenyl)imidazo[1,2-a]pyridin-3-yl)methyl)-1H-indazol-3(2H)-one]
[1]
  % Inhibition at 1000 nM for CBZD: ++ (percentage of inhibition of central BZD site binding is greater than 80% in the presence of 1000 nM of the compound)
[2]
  activation at 0.1 µM: 10 to 50%
[3]
  activation at 0.1 µM: ≥ 50%

## Cn1ncnc1Cc1c(-c2ccc(Cl)cc2)nc2ccccn12 [Compound 207, 2-(4-Chlorophenyl)-3-((1-methyl-1H-1,2,4-triazol-5-yl)methyl)imidazo[1,2-a]pyridine]
[1]
  % Inhibition at 1000 nM for CBZD: ++ (percentage of inhibition of central BZD site binding is greater than 80% in the presence of 1000 nM of the compound)
[2]
  activation at 0.1 µM: 10 to 50%
[3]
  activation at 0.1 µM: 10 to 50%

## CNC(=O)c1ncnn1Cc1c(-c2ccc(Cl)cc2)nc2ccc(Cl)cn12 [Compound 81, 2-[6-Chloro-2-(4-chloro-phenyl)-imidazo[1,2-a]pyridin-3-ylmethyl]-2H-[1,2,4]triazole-3-carboxylic acid methylamide]
[1]
  % Inhibition at 1000 nM for CBZD: ++ (percentage of inhibition of central BZD site binding is greater than 80% in the presence of 1000 nM of the compound)
[2]
  activation at 0.1 µM: 10 to 50%
[3]
  activation at 0.1 µM: 10 to 50%

## Fc1ccc(-c2nc3ccc(Cl)cn3c2Cn2cncn2)cc1 [Compound 62, 3-((1H-1,2,4-triazol-1-yl)methyl)-6-chloro-2-(4-fluorophenyl)H-imidazo[1,2-a]pyridine]
[1]
  % Inhibition at 1000 nM for CBZD: ++ (percentage of inhibition of central BZD site binding is greater than 80% in the presence of 1000 nM of the compound)
[2]
  Percentage of potentiation alpha1: + (percentage of potentiation is greater than or equal to 10% but less than 50% in the presence of 100 nM of the compound)
[3]
  Percentage of potentiation alpha2: 0 (percentage of potentiation is between about 10% to about −10%)

## Cc1cccn(Cc2c(-c3ccc(Cl)cc3)nc3ccc(F)cn23)c1=O [Compound 121, 1-((2-(4-chlorophenyl)-6-fluoroimidazo[1,2-a]pyridin-3-yl)methyl)-3-methylpyridin-2(1H)-one]
[1]
  % Inhibition at 1000 nM for CBZD: ++ (percentage of inhibition of central BZD site binding is greater than 80% in the presence of 1000 nM of the compound)
[2]
  activation at 0.1 µM: ≥ 50%
[3]
  activation at 0.1 µM: ≥ 50%

## COc1ccc(NCc2c(-c3ccccc3)nc3ccc(Cl)cn23)nn1 [Compound 165, N-((6-chloro-2-phenylimidazo[1,2-a]pyridin-3-yl)methyl)-6-methoxypyridazin-3-amine]
[1]
  % Inhibition at 1000 nM for CBZD: ++ (percentage of inhibition of central BZD site binding is greater than 80% in the presence of 1000 nM of the compound)
[2]
  activation at 0.1 µM: 10 to 50%
[3]
  activation at 0.1 µM: 10 to 50%

## Cc1nnc(Cc2c(-c3ccccc3)nc3ccc(Cl)cn23)[nH]1 [Compound 234, 6-chloro-3-((5-methyl-4H-1,2,4-triazol-3-yl)methyl)-2-phenylimidazo[1,2-a]pyridine]
[1]
  % Inhibition at 1000 nM for CBZD: ++ (percentage of inhibition of central BZD site binding is greater than 80% in the presence of 1000 nM of the compound)
[2]
  activation at 0.1 µM: 10 to 50%
[3]
  activation at 0.1 µM: ≥ 50%

## Cc1noc(-c2nccn2Cc2c(-c3ccc(Cl)cc3)nc3ccccn23)n1 [Compound 27, 2-(4-chlorophenyl)-3-((2-(3-methyl-1,2,4-oxadiazol-5-yl)-1H-imidazol-1-yl)methyl)H-imidazo[1,2-a]pyridine]
[1]
  % Inhibition at 1000 nM for CBZD: ++ (percentage of inhibition of central BZD site binding is greater than 80% in the presence of 1000 nM of the compound)
[2]
  Percentage of potentiation alpha1: + (percentage of potentiation is greater than or equal to 10% but less than 50% in the presence of 100 nM of the compound)
[3]
  Percentage of potentiation alpha2: + (percentage of potentiation is greater than or equal to 10% but less than 50% in the presence of 100 nM of the compound)

## Fc1ccc(-c2nc3ccc(Cl)cn3c2CNc2nccc(CN3CCCC3)n2)cc1 [Compound 198, N-((6-chloro-2-(4-fluorophenyl)imidazo[1,2-a]pyridin-3-yl)methyl)-4-(pyrrolidin-1-ylmethyl)pyrimidin-2-amine]
[1]
  % Inhibition at 1000 nM for CBZD: ++ (percentage of inhibition of central BZD site binding is greater than 80% in the presence of 1000 nM of the compound)
[2]
  activation at 0.1 µM: ≥ 50%
[3]
  activation at 0.1 µM: ≥ 50%

## Fc1ccc(-c2nc3ccccn3c2Cn2nccn2)cc1 [Compound 49, 3-((2H-1,2,3-triazol-2-yl)methyl)-2-(4-fluorophenyl)H-imidazo[1,2-a]pyridine]
[1]
  % Inhibition at 1000 nM for CBZD: ++ (percentage of inhibition of central BZD site binding is greater than 80% in the presence of 1000 nM of the compound)
[2]
  Percentage of potentiation alpha1: 0 (percentage of potentiation is between about 10% to about −10%)
[3]
  Percentage of potentiation alpha2: + (percentage of potentiation is greater than or equal to 10% but less than 50% in the presence of 100 nM of the compound)

## Cc1ccc(-c2nc3ccc(C)cn3c2CSc2nnc(C)s2)cc1 [Compound 179, 6-Methyl-3-(5-methyl-[1,3,4]thiadiazol-2-ylsulfanylmethyl)-2-p-tolyl-imidazo[1,2-a]pyridine]
[1]
  % Inhibition at 1000 nM for CBZD: ++ (percentage of inhibition of central BZD site binding is greater than 80% in the presence of 1000 nM of the compound)
[2]
  activation at 0.1 µM: -10 to 10%
[3]
  activation at 0.1 µM: -10 to 10%

## CCOC(=O)c1cc(C)n(Cc2c(-c3ccc(Cl)cc3)nc3ccccn23)n1 [Compound 29, ethyl 1-((2-(4-chlorophenyl)imidazo[1,2-a]pyridin-3-yl)methyl)-5-methyl-1H-pyrazole-3-carboxylate]
[1]
  % Inhibition at 1000 nM for CBZD: ++ (percentage of inhibition of central BZD site binding is greater than 80% in the presence of 1000 nM of the compound)
[2]
  activation at 0.1 µM: ≥ 50%
[3]
  activation at 0.1 µM: ≥ 50%

## Cn1c(=O)ccn(Cc2c(-c3ccc(Cl)cc3)nc3ccccn23)c1=O [Compound 125, 1-((2-(4-chlorophenyl)imidazo[1,2-a]pyridin-3-yl)methyl)-3-methylpyrimidine-2,4(1H,3H)-dione]
[1]
  % Inhibition at 1000 nM for CBZD: ++ (percentage of inhibition of central BZD site binding is greater than 80% in the presence of 1000 nM of the compound)
[2]
  activation at 0.1 µM: -10 to 10%
[3]
  activation at 0.1 µM: 10 to 50%

## Cc1nnc(Cc2c(-c3ccc(Cl)cc3)nc3ccccn23)o1 [Compound 204, 2-((2-(4-chlorophenyl)imidazo[1,2-a]pyridin-3-yl)methyl)-5-methyl-1,3,4-oxadiazole]
[1]
  % Inhibition at 1000 nM for CBZD: ++ (percentage of inhibition of central BZD site binding is greater than 80% in the presence of 1000 nM of the compound)
[2]
  activation at 0.1 µM: -10 to 10%
[3]
  activation at 0.1 µM: 10 to 50%

## Clc1ccc2nc(-c3ccccc3)c(Cn3nnc4ccccc43)n2c1 [Compound 46, 1-((6-chloro-2-phenylH-imidazo[1,2-a]pyridin-3-yl)methyl)-1H-benzo[d][1,2,3]triazole]
[1]
  % Inhibition at 1000 nM for CBZD: ++ (percentage of inhibition of central BZD site binding is greater than 80% in the presence of 1000 nM of the compound)
[2]
  Percentage of potentiation alpha1: + (percentage of potentiation is greater than or equal to 10% but less than 50% in the presence of 100 nM of the compound)
[3]
  Percentage of potentiation alpha2: 0 (percentage of potentiation is between about 10% to about −10%)

## Clc1ccc2nc(-c3ccccc3)c(Cn3nc4ccccc4n3)n2c1 [Compound 47, 2-((6-chloro-2-phenylH-imidazo[1,2-a]pyridin-3-yl)methyl)-2H-benzo[d][1,2,3]triazole]
[1]
  % Inhibition at 1000 nM for CBZD: + (percentage of inhibition of central BZD site binding is greater than 50% but less than 80% in the presence of 1000 nM of the compound)
[2]
  Percentage of potentiation alpha1: 0 (percentage of potentiation is between about 10% to about −10%)
[3]
  Percentage of potentiation alpha2: 0 (percentage of potentiation is between about 10% to about −10%)

## Cc1ccc2nc(-c3ccc(F)cc3)c(CNc3nc(C)cc(Cl)n3)n2c1 [Compound 160, 4-chloro-N-((2-(4-fluorophenyl)-6-methylimidazo[1,2-a]pyridin-3-yl)methyl)-6-methylpyrimidin-2-amine]
[1]
  % Inhibition at 1000 nM for CBZD: ++ (percentage of inhibition of central BZD site binding is greater than 80% in the presence of 1000 nM of the compound)
[2]
  activation at 0.1 µM: 10 to 50%
[3]
  activation at 0.1 µM: 10 to 50%

Source: patent US8497278B2, “Imidazo[1,2-a]pyridine compounds” (priority 2008, dated 2013)
